PubChem BioAssay (NCI)
Several values for one entry are separate records, joined by “and”; a condition that tells them apart may be missing. Equal entries are not always repeated.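 How tested: cells in 96-well plates exposed to compound for 48 hours at five concentrations. At the GI50, growth is halved. At the TGI there is no net growth.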

What was measured:
Assay in all cases: growth of human tumour cells (NCI), 48 h
SNB-19 CNS = system: SNB-19 CNS
DU-145 prostate = system: DU-145 prostate
T-47D breast = system: T-47D breast
SF-268 CNS = system: SF-268 CNS
CCRF-CEM leukemia = system: CCRF-CEM leukemia
OVCAR-8 ovarian = system: OVCAR-8 ovarian
KM12 colon = system: KM12 colon
HCT-15 colon = system: HCT-15 colon
IGROV1 ovarian = system: IGROV1 ovarian
SW-620 colon = system: SW-620 colon
LOX IMVI melanoma = system: LOX IMVI melanoma
MOLT-4 leukemia = system: MOLT-4 leukemia
K-562 leukemia = system: K-562 leukemia
EKVX NSCLC = system: EKVX NSCLC
SF-539 CNS = system: SF-539 CNS
MDA-MB-231 breast = system: MDA-MB-231 breast
HOP-92 NSCLC = system: HOP-92 NSCLC
TK-10 renal = system: TK-10 renal
OVCAR-4 ovarian = system: OVCAR-4 ovarian
A549 NSCLC = system: A549 NSCLC
OVCAR-5 ovarian = system: OVCAR-5 ovarian
HS 578T breast = system: HS 578T breast
U251 CNS = system: U251 CNS
NCI-H522 lung = system: NCI-H522 lung
NCI-H23 lung = system: NCI-H23 lung
SN12C renal = system: SN12C renal
SK-OV-3 ovarian = system: SK-OV-3 ovarian
SR leukemia = system: SR leukemia
MALME-3M melanoma = system: MALME-3M melanoma
HOP-62 NSCLC = system: HOP-62 NSCLC
NCI/ADR-RES ovarian = system: NCI/ADR-RES ovarian
ACHN renal = system: ACHN renal
786-0 renal = system: 786-0 renal
NCI-H226 lung = system: NCI-H226 lung
A498 renal = system: A498 renal
MCF7 breast = system: MCF7 breast
SK-MEL-28 melanoma = system: SK-MEL-28 melanoma
M14 melanoma = system: M14 melanoma
PC-3 prostate = system: PC-3 prostate
RPMI-8226 leukemia = system: RPMI-8226 leukemia
UO-31 renal = system: UO-31 renal
SNB-75 CNS = system: SNB-75 CNS
HCC-2998 colon = system: HCC-2998 colon
BT-549 breast = system: BT-549 breast
OVCAR-3 ovarian = system: OVCAR-3 ovarian
UACC-257 melanoma = system: UACC-257 melanoma
SK-MEL-5 melanoma = system: SK-MEL-5 melanoma
HT29 colon = system: HT29 colon
HL-60(TB) leukemia = system: HL-60(TB) leukemia
UACC-62 melanoma = system: UACC-62 melanoma
MDA-MB-435 = system: MDA-MB-435
CAKI-1 renal = system: CAKI-1 renal
NCI-H460 lung = system: NCI-H460 lung
SK-MEL-2 melanoma = system: SK-MEL-2 melanoma
COLO 205 colon = system: COLO 205 colon
SF-295 CNS = system: SF-295 CNS
HCT-116 colon = system: HCT-116 colon
RXF 393 renal = system: RXF 393 renal

## CS(=O)(=O)c1ccc(C(=O)Nc2ccc(Cl)c(-c3ccccn3)c2)c(Cl)c1
SNB-19 CNS
  TGI: > 100 µM
DU-145 prostate
  TGI: > 100 µM
T-47D breast
  TGI: > 100 µM and 12.1 µM
SF-268 CNS
  TGI: > 100 µM and 66.5 µM
CCRF-CEM leukemia
  TGI: > 100 µM
OVCAR-8 ovarian
  TGI: > 100 µM and 25.5 µM
KM12 colon
  TGI: > 100 µM and 10.2 µM
HCT-15 colon
  TGI: > 100 µM and 21.2 µM
IGROV1 ovarian
  TGI: > 100 µM
SW-620 colon
  TGI: > 100 µM and 13.2 µM
LOX IMVI melanoma
  TGI: > 100 µM and 10.1 µM
MOLT-4 leukemia
  TGI: > 100 µM and 14.7 µM
K-562 leukemia
  TGI: > 100 µM and 45.7 µM
EKVX NSCLC
  TGI: > 100 µM and 14.9 µM
SF-539 CNS
  TGI: > 100 µM and 13.7 µM
MDA-MB-231 breast
  TGI: > 96.2 µM and 15.7 µM
HOP-92 NSCLC
  TGI: > 100 µM and 10.7 µM
TK-10 renal
  TGI: > 100 µM and 34.7 µM
OVCAR-4 ovarian
  GI50: 29.7 µM
  TGI: > 100 µM
A549 NSCLC
  TGI: > 100 µM and 21.2 µM
OVCAR-5 ovarian
  TGI: > 100 µM and 94.6 µM
HS 578T breast
  TGI: > 100 µM
U251 CNS
  TGI: > 100 µM and 15.8 µM
NCI-H522 lung
  TGI: > 94 µM and 9.43 µM
NCI-H23 lung
  TGI: > 100 µM and 17.2 µM
SN12C renal
  TGI: > 100 µM and 51.3 µM
SK-OV-3 ovarian
  GI50: > 100 µM
  TGI: > 100 µM
SR leukemia
  TGI: > 100 µM and 20.9 µM
MALME-3M melanoma
  GI50: 41.9 µM and 5.24 µM
  TGI: > 100 µM and 31.6 µM
HOP-62 NSCLC
  TGI: > 100 µM and 19.3 µM
NCI/ADR-RES ovarian
  TGI: > 100 µM and 25.7 µM
ACHN renal
  TGI: > 100 µM and 23.5 µM
786-0 renal
  GI50: 63.2 µM
  TGI: > 100 µM
NCI-H226 lung
  TGI: > 100 µM and 26.5 µM
A498 renal
  TGI: > 100 µM and 46.3 µM
MCF7 breast
  TGI: > 100 µM and 14.9 µM
SK-MEL-28 melanoma
  TGI: > 100 µM and 16.3 µM
M14 melanoma
  TGI: > 100 µM and 11.1 µM
PC-3 prostate
  TGI: > 100 µM and 33.7 µM
RPMI-8226 leukemia
  TGI: > 100 µM and 10.6 µM
UO-31 renal
  GI50: 12.1 µM and 3.66 µM
  TGI: > 42.6 µM and 27 µM
SNB-75 CNS
  GI50: 14.4 µM and 3.14 µM
  TGI: > 100 µM and 79 µM

## COc1cccc(/C=C2/Sc3scc(-c4ccccc4)[n+]3C2=O)c1O
SNB-19 CNS
  TGI: 67 µM
DU-145 prostate
  TGI: 56.9 µM
SF-268 CNS
  TGI: > 100 µM
CCRF-CEM leukemia
  TGI: 30.4 µM
HCC-2998 colon
  TGI: 30.7 µM
OVCAR-8 ovarian
  TGI: 35.4 µM
KM12 colon
  TGI: 40.4 µM
HCT-15 colon
  TGI: 29.9 µM
IGROV1 ovarian
  TGI: 38.9 µM
SW-620 colon
  TGI: 43.8 µM
LOX IMVI melanoma
  TGI: 36.4 µM
MOLT-4 leukemia
  TGI: 49.5 µM
BT-549 breast
  TGI: 45.1 µM
OVCAR-3 ovarian
  TGI: 95.3 µM
EKVX NSCLC
  TGI: 64.6 µM
UACC-257 melanoma
  TGI: 44.9 µM
SF-539 CNS
  TGI: 47.6 µM
MDA-MB-231 breast
  TGI: 79.2 µM
HOP-92 NSCLC
  TGI: 51.2 µM
TK-10 renal
  TGI: 68.4 µM
OVCAR-4 ovarian
  TGI: 74.4 µM
A549 NSCLC
  TGI: > 100 µM
OVCAR-5 ovarian
  TGI: > 100 µM
HS 578T breast
  TGI: > 100 µM
SK-MEL-5 melanoma
  TGI: 31.1 µM
U251 CNS
  TGI: 43.3 µM
NCI-H522 lung
  TGI: 52.8 µM
NCI-H23 lung
  TGI: 38.9 µM
SN12C renal
  TGI: 36.8 µM
SK-OV-3 ovarian
  TGI: 70.4 µM
HT29 colon
  TGI: 37.3 µM
HOP-62 NSCLC
  TGI: 68.4 µM
NCI/ADR-RES ovarian
  TGI: 42.3 µM
HL-60(TB) leukemia
  TGI: 39.6 µM
UACC-62 melanoma
  TGI: 30.5 µM
MDA-MB-435
  TGI: > 100 µM
ACHN renal
  TGI: 40.9 µM
CAKI-1 renal
  TGI: 47.7 µM
786-0 renal
  TGI: 32.1 µM
NCI-H226 lung
  TGI: 40.5 µM
NCI-H460 lung
  TGI: 37.9 µM
MCF7 breast
  TGI: > 100 µM
SK-MEL-28 melanoma
  TGI: 40.9 µM
M14 melanoma
  TGI: > 100 µM
PC-3 prostate
  TGI: > 100 µM
SK-MEL-2 melanoma
  TGI: 89.8 µM
COLO 205 colon
  TGI: > 100 µM
UO-31 renal
  TGI: 26.9 µM
SNB-75 CNS
  TGI: > 100 µM
SF-295 CNS
  TGI: > 100 µM
HCT-116 colon
  TGI: 29.2 µM
RXF 393 renal
  TGI: 29.8 µM

## COc1ccc(C2CC(c3cc(OC)c(OC)c(OC)c3)=NN2C(C)=O)cc1OCC(=O)Nc1nc2ccc(C(F)(F)F)cc2s1 (stereo unspecified)
SNB-19 CNS
  GI50: 11 µM
  TGI: 35.8 µM
SF-268 CNS
  GI50: 3.84 µM
  TGI: 29.5 µM
HCC-2998 colon
  GI50: > 100 µM
  TGI: > 100 µM
OVCAR-8 ovarian
  GI50: 3.36 µM
  TGI: > 100 µM
HCT-15 colon
  GI50: 9.26 µM
  TGI: > 100 µM
IGROV1 ovarian
  GI50: 5.3 µM
  TGI: > 100 µM
SW-620 colon
  GI50: > 100 µM
  TGI: > 100 µM
LOX IMVI melanoma
  GI50: 3.36 µM
  TGI: > 100 µM
BT-549 breast
  GI50: 3.55 µM
  TGI: 82 µM
EKVX NSCLC
  GI50: 4.1 µM
  TGI: > 100 µM
SF-539 CNS
  GI50: 1.75 µM
  TGI: 3.42 µM
MDA-MB-231 breast
  GI50: 3.11 µM
  TGI: 8.96 µM
HOP-92 NSCLC
  GI50: 1.7 µM
  TGI: 4.02 µM
TK-10 renal
  GI50: 2.85 µM
  TGI: 7.77 µM
OVCAR-4 ovarian
  GI50: 2.9 µM
  TGI: > 100 µM
OVCAR-5 ovarian
  GI50: 28.2 µM
  TGI: > 100 µM
HS 578T breast
  GI50: 2.48 µM
  TGI: 7.74 µM
SK-MEL-5 melanoma
  GI50: 3.56 µM
  TGI: > 100 µM
U251 CNS
  GI50: 3.08 µM
  TGI: 9.9 µM
NCI-H522 lung
  GI50: 2.71 µM
  TGI: > 100 µM
NCI-H23 lung
  GI50: 3.76 µM
  TGI: 33 µM
SN12C renal
  GI50: 3.31 µM
  TGI: > 100 µM
SK-OV-3 ovarian
  GI50: 5.75 µM
  TGI: 39.1 µM
HOP-62 NSCLC
  GI50: 2.2 µM
  TGI: 5.58 µM
NCI/ADR-RES ovarian
  GI50: 3.13 µM
  TGI: > 100 µM
UACC-62 melanoma
  GI50: 3.77 µM
  TGI: > 100 µM
ACHN renal
  GI50: 2.48 µM
  TGI: 7.13 µM
786-0 renal
  GI50: 3.58 µM
  TGI: 12.2 µM
A498 renal
  GI50: 2.78 µM
  TGI: 9.7 µM
MCF7 breast
  GI50: 4.02 µM
  TGI: > 100 µM
M14 melanoma
  GI50: 6.44 µM
  TGI: > 100 µM
PC-3 prostate
  GI50: 2.92 µM
  TGI: > 100 µM
SK-MEL-2 melanoma
  GI50: 3.08 µM
  TGI: 20.4 µM
COLO 205 colon
  GI50: 3.94 µM
  TGI: > 100 µM
RPMI-8226 leukemia
  GI50: 2.21 µM
  TGI: 7.09 µM
SNB-75 CNS
  GI50: 1.55 µM
  TGI: 4.78 µM
SF-295 CNS
  GI50: 3.06 µM
  TGI: 11.5 µM
RXF 393 renal
  GI50: 2.09 µM
  TGI: 5.32 µM
